# Measured values reported in PubChem BioAssay (NCI).
# “And” between values parts separate entries of the source, which are not always exact repeats. Equal entries are not always repeated.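 All cell lines were grown in 96-well plates and treated with compound for 48 hours. GI50 is the concentration that inhibits growth by half. TGI denotes the concentration required for complete inhibition of growth.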
# What was measured:
# Experiment in all cases: NCI anticancer screen, dose series, 48 h
# [1] = test system: HCT-15 colon
# [2] = test system: SF-268 CNS
# [3] = test system: U251 CNS
# [4] = test system: LOX IMVI melanoma
# [5] = test system: NCI-H522 lung
# [6] = test system: OVCAR-5 ovarian
# [7] = test system: OVCAR-3 ovarian
# [8] = test system: DU-145 prostate
# [9] = test system: A498 renal
# [10] = test system: HS 578T breast
Structure (SMILES),TGI [1],TGI [2],TGI [3],TGI [4],TGI [5],TGI [6],TGI [7],TGI [8],TGI [9],TGI [10],GI50 [9],GI50 [4],GI50 [8]
NNC(=O)COc1nc(-c2cccs2)nc2ccc(I)cc12,56 µM,70.5 µM,55.8 µM,36.9 µM,45.8 µM,> 100 µM,40.7 µM,50.7 µM,–,–,–,–,–
O=CC12CCCN1CCC2,> 100 µM,–,> 100 µM,> 100 µM,> 100 µM,> 100 µM,> 100 µM,> 100 µM,–,–,–,–,–
CCCCC(C)(C/C=C/[C@@H]1[C@@H](C(O)CCCCCC(=O)OC)C(=O)C[C@H]1O[Si](C)(C)C(C)(C)C)O[Si](C)(C)C (some centres not stated),> 100 µM,> 100 µM,> 100 µM,> 100 µM,> 100 µM,> 100 µM,> 100 µM,> 100 µM,–,–,–,–,–
CC(C)[C@H](NC(=O)OCc1ccccc1)C(=O)N[C@H](/C=C/C(=O)OC(C)(C)C)CO,> 100 µM,> 100 µM,–,> 100 µM,> 100 µM,> 100 µM,> 100 µM,> 100 µM,> 100 µM,> 100 µM,–,–,–
Oc1[nH]c2ccccc2c1N=Nc1nc(-c2ccccc2)cs1,> 100 µM,–,> 100 µM,> 100 µM,–,> 100 µM,> 100 µM,> 100 µM,–,–,–,–,–
COc1c(-c2nc3nc(N4CCN(C)CC4)ccc3[nH]2)cc(OC)c2c1nc(CCl)n2C,90.6 µM,55.7 µM,25.8 µM,24 µM,25.5 µM,56.1 µM,81.5 µM,78.2 µM,–,> 100 µM,–,–,–
Cc1ccc(C(=O)C2CC3(CCC2(O)c2ccc(C)cc2)CC(=O)Nc2ccccc2C3=O)cc1 (configuration not stated),> 100 µM,> 100 µM,> 100 µM,> 100 µM,–,> 100 µM,> 100 µM,> 100 µM,> 100 µM,> 100 µM,–,–,–
COc1ccc2c(C=O)c3n(c(=O)c2c1OC)CCc1cc2c(cc1-3)OCO2,> 100 µM,> 100 µM,> 100 µM,–,> 100 µM,> 100 µM,> 100 µM,> 100 µM,> 100 µM,> 100 µM,–,–,–
N/N=C(\N)SCc1ccc(N=C=S)cc1,> 100 µM,> 100 µM,> 100 µM,> 100 µM,> 100 µM,> 100 µM,–,> 100 µM,> 100 µM,> 100 µM,–,–,–
C/C(=C\CNc1ncnc2c1ncn2CCC#N)CO,–,> 100 µM,–,> 100 µM,> 100 µM,> 100 µM,> 100 µM,> 100 µM,–,> 100 µM,–,–,–
COC1=C(C)C(=O)C2=C(C1=O)C1C3CC4=C(C(=O)C(OC)=C(C)C4=O)C(CNC(=O)C(C)=O)N3C(C#N)C(C2)N1C (configuration not stated),–,–,–,8.74e-05 µM and < 0.0251 µM and < 0.0105 µM,–,0.0768 µM and 0.0776 µM,0.00533 µM and 0.0414 µM and < 0.0468 µM,0.0862 µM,–,0.00238 µM,0.0634 µM,0.0147 nM,0.0033 µM
CC1SCCc2nc3ccccc3n21 (configuration not stated),> 100 µM,> 100 µM,> 100 µM,> 100 µM,–,> 100 µM,> 100 µM,> 100 µM,> 100 µM,> 100 µM,–,–,–
Cc1ccc(C)c(C(=O)CC2OC(O)C(Cl)C2Cl)c1 (configuration not stated),> 100 µM,> 100 µM,> 100 µM,48.4 µM,29.4 µM,> 100 µM,> 100 µM,–,> 100 µM,–,–,–,–
CCc1nc2cc(F)ccc2[nH]c1=O,> 100 µM,> 100 µM,> 100 µM,> 100 µM,–,> 100 µM,> 100 µM,> 100 µM,> 100 µM,> 100 µM,–,–,–
O=[N+]([O-])c1cccc2c1[nH]c1c(-c3ccccc3)nccc12,> 38.5 µM,> 100 µM,> 30.3 µM,10.7 µM,4.27 µM,> 100 µM,4.45 µM,–,12.9 µM,–,–,–,–
Cc1c(N(Cc2ccccc2)Cc2ccccc2)nc(S(C)(=O)=O)nc1S(C)(=O)=O,6.4 µM,3.74 µM,6.64 µM,3.24 µM,3.14 µM,19.3 µM,3.36 µM,–,–,–,–,–,–
N=c1sc(N2CCOCC2)nn1CC(=O)c1ccccc1,> 100 µM,> 100 µM,> 100 µM,–,> 100 µM,> 100 µM,> 100 µM,> 100 µM,–,> 100 µM,–,–,–
CC(=O)Oc1cc(OC(C)=O)c2c(c1C)CC[C@@H]1[C@@H]2CC[C@]2(C)[C@@H](OC(C)=O)CC[C@@H]12,33.3 µM,39.3 µM,31.9 µM,34.2 µM,32 µM,–,31.7 µM,61 µM,34.8 µM,53.2 µM,–,–,–
Nc1nc(N)c2ncn(Cc3ccccc3)c2n1,> 100 µM,> 100 µM,> 100 µM,–,> 100 µM,> 100 µM,> 100 µM,> 100 µM,> 100 µM,> 100 µM,–,–,–
NS(=O)(=O)C1CCCCC1C(=O)NNC(=O)C(=O)Nc1nc(=S)[nH][nH]1 (configuration not stated),> 100 µM,> 100 µM,> 100 µM,> 100 µM,> 100 µM,> 100 µM,–,–,> 100 µM,–,–,–,–
Cc1cccc2c1Oc1ncccc1C2NC(=O)CN(C)C (configuration not stated),> 10 µM,> 10 µM,> 10 µM,> 10 µM,> 10 µM,> 10 µM,> 10 µM,–,–,–,–,–,–
Nn1c(=S)[nH]nc(/C=C/c2c(O)ccc3ccccc23)c1=O,17.9 µM,38.6 µM,> 100 µM,11.7 µM,16.7 µM,42.5 µM,22.1 µM,> 100 µM,69.9 µM,–,–,–,–
CCOP(=O)(OCC)/C(C#N)=C(\C)c1ccco1,> 10 µM,> 10 µM,> 10 µM,> 10 µM,–,> 10 µM,> 10 µM,> 10 µM,> 10 µM,> 10 µM,–,–,–
CCCCN1/C(=N/Nc2n[nH]c(=O)c3ccccc23)SCC1c1ccc(Cl)cc1 (configuration not stated),28.7 µM,43.9 µM,21.2 µM,–,37.1 µM,61 µM,37.6 µM,> 100 µM,66.2 µM,56.2 µM,–,–,–
